Source: ChEMBL document CHEMBL1201862, “PubChem BioAssay data set” (2004)
Active and inactive are the calls of the source.

How the values were obtained:
[1] = toxicity toward HepG2 liver cells – cell-based, plate reader, cherry-pick, antagonist series, cytotoxicity control, dose response (AID 743416); format: functional
Streptococcus = experiment: GAS UMAA2166 growth inhibition – luminescence, BacTiterGlo, counter-screen for streptokinase expression inhibitor project, dose response (AID 1915); format: functional, organism-based;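 further: potency for reduction of bacterial viability or growth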
[2] = test system: Streptococcus sp. 'group A'; experiment: Streptococcus pyogenes SK(-)GAS viability under kanamycin – luminescence, BacTiterGlo, confirmation, counter-screen for streptokinase expression inhibitor project, dose response (AID 1900); format: functional, organism-based
Streptokinase A = biological target: T1, Streptokinase A (Streptococcus pyogenes serotype M1, UniProt P10520); experiment: viability-normalized secreted streptokinase activity reduction – plasminogen activation absorbance, OD405, dose response (AID 1914); format: functional, Streptococcus pyogenes M1 GAS;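 further: secreted streptokinase activity via plasminogen activation per viability signal from cell pellet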
T1 sequence (P10520 whole entry): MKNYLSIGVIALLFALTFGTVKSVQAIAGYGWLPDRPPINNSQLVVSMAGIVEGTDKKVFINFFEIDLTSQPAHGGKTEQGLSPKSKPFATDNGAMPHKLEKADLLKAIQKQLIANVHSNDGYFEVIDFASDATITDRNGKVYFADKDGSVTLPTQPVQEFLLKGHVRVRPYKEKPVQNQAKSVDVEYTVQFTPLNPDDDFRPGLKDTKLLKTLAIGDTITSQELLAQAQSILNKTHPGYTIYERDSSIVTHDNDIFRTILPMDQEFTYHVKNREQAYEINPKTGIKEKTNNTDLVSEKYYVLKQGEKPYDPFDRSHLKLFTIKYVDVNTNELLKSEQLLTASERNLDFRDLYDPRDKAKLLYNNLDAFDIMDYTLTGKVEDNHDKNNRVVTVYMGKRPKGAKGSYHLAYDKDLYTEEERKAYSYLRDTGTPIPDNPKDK

[3] = blockade of melanocortin 4 receptor signaling – cell-based, plate reader, cherry pick, counter-screen for LGR2 antagonist project, dose response (AID 743444); format: functional;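 further: transfected HEK 293 cells stimulated with alpha-MSH peptide; potency of inhibitors of the alpha-MSH evoked signal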
[4] = biological target: T2, Kappa-type opioid receptor (Homo sapiens, UniProt P41145); format: functional
T2 sequence (P41145 whole entry): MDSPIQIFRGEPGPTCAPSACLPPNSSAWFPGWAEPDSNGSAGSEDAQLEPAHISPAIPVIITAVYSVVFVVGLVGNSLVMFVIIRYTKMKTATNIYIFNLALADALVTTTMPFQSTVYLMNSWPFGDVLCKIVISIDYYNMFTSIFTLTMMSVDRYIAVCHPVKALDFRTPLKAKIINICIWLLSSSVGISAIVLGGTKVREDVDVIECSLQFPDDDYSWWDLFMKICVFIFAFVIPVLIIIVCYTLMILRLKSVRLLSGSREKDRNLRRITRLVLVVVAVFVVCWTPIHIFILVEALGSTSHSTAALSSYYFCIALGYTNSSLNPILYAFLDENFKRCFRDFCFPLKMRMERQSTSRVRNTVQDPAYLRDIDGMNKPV

[5] = blockers of bursicon-stimulated LGR2 cAMP reporter – cell-based, HEK293, CRE-luciferase reporter, cherry pick, set 2, dose response (AID 743343); format: functional;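 further: transfected cells were stimulated with diluted bursicon conditioned medium after compound addition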
Beta-galactosidase [6] = biological target: T3, Beta-galactosidase (Escherichia coli, UniProt Q8VNN2); format: functional
T3 sequence (Q8VNN2 whole entry): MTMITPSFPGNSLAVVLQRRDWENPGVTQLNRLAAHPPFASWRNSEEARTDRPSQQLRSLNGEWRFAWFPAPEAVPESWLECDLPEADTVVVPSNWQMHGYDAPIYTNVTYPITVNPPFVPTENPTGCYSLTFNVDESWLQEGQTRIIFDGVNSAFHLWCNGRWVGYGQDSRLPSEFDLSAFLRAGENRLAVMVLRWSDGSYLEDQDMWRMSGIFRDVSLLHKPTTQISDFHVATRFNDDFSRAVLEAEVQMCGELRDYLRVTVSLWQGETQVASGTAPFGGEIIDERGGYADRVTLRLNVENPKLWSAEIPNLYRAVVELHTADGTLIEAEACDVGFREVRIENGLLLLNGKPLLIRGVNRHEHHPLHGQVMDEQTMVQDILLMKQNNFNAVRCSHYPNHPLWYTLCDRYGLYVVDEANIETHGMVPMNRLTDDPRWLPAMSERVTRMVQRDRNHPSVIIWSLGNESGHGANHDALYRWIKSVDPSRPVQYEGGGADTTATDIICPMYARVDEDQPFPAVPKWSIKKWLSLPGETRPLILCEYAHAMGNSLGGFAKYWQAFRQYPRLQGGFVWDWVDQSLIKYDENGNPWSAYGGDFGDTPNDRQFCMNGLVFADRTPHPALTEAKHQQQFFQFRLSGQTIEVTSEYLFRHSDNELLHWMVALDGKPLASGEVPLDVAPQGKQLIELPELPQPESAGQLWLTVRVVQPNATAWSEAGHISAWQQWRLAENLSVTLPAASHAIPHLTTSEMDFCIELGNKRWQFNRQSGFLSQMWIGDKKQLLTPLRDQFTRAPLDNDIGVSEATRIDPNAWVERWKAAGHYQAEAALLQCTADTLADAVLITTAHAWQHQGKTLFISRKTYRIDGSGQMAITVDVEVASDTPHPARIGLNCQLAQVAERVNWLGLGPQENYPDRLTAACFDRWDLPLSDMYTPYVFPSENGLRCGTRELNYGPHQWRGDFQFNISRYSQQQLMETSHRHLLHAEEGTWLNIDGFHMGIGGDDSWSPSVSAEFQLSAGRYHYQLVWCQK

[7] = biological target: T2, Kappa-type opioid receptor; format: functional; remark: listed apart in the source
[8] = HepG2 cell cytotoxicity, dose response, cytotoxicity control for non-replicating M. tuberculosis project (AID 489018); format: functional; conditions: Mycobacterium tuberculosis
[9] = viability loss in HEK293 cells – cell-based, plate reader, cherry-picked samples, cytotoxicity control, dose response (AID 743446); format: functional
[10] = THP-1 cell cytotoxicity, dose response, cytotoxicity control for non-replicating M. tuberculosis project (AID 489025); format: functional
cells = format: functional
[11] = biological target: T4, Type-1 angiotensin II receptor (Homo sapiens, UniProt P30556); experiment: antagonism of angiotensin II type 1 receptor – cell-based, uHTS hits, selectivity assay for APJ receptor antagonist project, dose response (AID 463214); format: functional;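 further: antagonist potency against angiotensin II stimulated AT1 response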
T4 sequence (P30556 whole entry): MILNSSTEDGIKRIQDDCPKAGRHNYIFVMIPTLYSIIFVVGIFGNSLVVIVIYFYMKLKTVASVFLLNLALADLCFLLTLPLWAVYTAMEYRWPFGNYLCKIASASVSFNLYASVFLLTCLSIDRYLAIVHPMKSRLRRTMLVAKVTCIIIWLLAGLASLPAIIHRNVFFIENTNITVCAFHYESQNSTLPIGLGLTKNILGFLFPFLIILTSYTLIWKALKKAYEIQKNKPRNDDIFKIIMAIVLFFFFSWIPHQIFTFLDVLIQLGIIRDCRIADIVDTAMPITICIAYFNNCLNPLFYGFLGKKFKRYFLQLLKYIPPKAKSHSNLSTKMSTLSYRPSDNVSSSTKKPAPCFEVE

[12] = A549 cell cytotoxicity, dose response, cytotoxicity control, plate reader, cherry-pick, antagonist series (AID 743412); format: functional, cell-based
INS1 = experiment: INS-1E survival protection against cytokine death – cell-based, luminescence, retest, dose response (AID 449756); format: functional; conditions: Rattus norvegicus;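 further: cell death triggered by IL-1 beta plus TNF-alpha plus IFN-gamma mixture; protective hits raise ATP signal compared with cytokine alone wells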
[13] = Vero E6 cell cytotoxicity, dose response, cytotoxicity control for non-replicating M. tuberculosis project, secondary assay (AID 492998); format: functional, VeroE6; conditions: Vero C1008
Beta-galactosidase [14] = biological target: T3, Beta-galactosidase; experiment: PubChem AID 485352; format: functional
Coagulation factor XII [15] = biological target: T5, Coagulation factor XII (Homo sapiens, UniProt P00748); experiment: activated coagulation factor XII inhibitor potency, concentration-effect curve, cell-free (AID 716); format: functional
T5 sequence (P00748 whole entry): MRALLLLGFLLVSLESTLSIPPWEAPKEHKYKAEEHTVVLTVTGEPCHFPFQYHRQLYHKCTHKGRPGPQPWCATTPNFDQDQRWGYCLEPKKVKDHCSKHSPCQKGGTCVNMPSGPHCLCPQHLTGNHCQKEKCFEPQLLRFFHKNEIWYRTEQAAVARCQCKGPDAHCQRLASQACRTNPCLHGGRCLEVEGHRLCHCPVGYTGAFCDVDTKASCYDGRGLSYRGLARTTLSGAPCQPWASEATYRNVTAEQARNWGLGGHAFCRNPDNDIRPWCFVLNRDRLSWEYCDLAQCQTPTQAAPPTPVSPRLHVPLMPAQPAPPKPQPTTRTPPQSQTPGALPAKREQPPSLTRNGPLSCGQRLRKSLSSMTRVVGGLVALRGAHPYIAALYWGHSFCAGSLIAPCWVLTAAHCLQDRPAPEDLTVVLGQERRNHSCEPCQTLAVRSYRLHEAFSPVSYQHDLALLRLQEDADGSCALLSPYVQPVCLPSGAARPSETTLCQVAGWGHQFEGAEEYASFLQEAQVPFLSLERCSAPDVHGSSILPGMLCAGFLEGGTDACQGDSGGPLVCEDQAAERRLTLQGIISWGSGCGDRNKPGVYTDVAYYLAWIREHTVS

[16] = biological target: T6, Sphingosine 1-phosphate receptor 4 (Homo sapiens, UniProt O95977); experiment: Late-stage fluorescence dose response cell-based assay to identify agonists of the Sphingosine 1-Phosphate Receptor 4 (S1P4): purchased compounds EC50. [Related pubchem assays (depositor defined):AID1509, AID1523, AID1563, AID1686, AID1701, AID1801]; format: functional
T6 sequence (O95977 whole entry): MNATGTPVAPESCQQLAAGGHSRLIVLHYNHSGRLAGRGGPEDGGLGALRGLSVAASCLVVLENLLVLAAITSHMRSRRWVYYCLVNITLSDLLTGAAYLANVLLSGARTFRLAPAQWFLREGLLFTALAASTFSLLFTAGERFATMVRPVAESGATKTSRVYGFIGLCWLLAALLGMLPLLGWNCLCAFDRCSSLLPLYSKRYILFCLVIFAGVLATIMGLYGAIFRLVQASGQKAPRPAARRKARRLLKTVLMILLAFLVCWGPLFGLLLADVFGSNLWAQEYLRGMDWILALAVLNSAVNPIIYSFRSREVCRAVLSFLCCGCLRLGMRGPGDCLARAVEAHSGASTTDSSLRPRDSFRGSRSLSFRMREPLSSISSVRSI

Coagulation factor XII [17] = biological target: T5, Coagulation factor XII; format: functional
Paired box protein Pax-8 = Paired box protein Pax-8 (Homo sapiens, UniProt Q06710); experiment: PAX8 transcriptional activity inhibition in RMG-I – RMG-I cells, luciferase, cherry-pick, dose response (AID 687027); format: functional, cell-based;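 further: luciferase reporter driven by Pax8 target thyroperoxidase promoter measured by SteadyGlo luminescence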
Chain of Paired box protein Pax-8 (Q06710 whole entry): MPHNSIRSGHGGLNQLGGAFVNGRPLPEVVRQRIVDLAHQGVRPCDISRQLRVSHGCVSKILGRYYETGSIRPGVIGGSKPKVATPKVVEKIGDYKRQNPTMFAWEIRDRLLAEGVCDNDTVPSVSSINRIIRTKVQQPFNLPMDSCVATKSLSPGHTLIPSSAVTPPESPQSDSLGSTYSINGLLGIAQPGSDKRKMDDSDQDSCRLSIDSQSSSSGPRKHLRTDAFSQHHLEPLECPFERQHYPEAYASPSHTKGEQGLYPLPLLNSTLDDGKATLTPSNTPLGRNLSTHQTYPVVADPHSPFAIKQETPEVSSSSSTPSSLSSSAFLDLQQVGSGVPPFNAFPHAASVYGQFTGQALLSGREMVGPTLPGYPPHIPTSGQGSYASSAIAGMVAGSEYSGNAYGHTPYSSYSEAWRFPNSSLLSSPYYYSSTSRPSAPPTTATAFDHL

[18] = luciferase reporter signal suppression in cells – H4 neuroglioma cells, luminescence, dose response (AID 1990); format: functional, cell-based
[19] = Luminescence Cell-Based Dose Response HTS to Identify Inhibitors of 5'UTR Stem-Loop Driven Prion Protein mRNA Translation in H4 Neuroglioblastoma Cells. [Related pubchem assays: 1827 (Project Summary), 1813 (Primary HTS)]; format: functional
X-box-binding protein 1 = biological target: T7, X-box-binding protein 1 (Homo sapiens, UniProt P17861); format: functional, Cricetulus griseus;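 further: confirmatory dose-response counter-screen serving a CHOP assay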
T7 sequence (P17861 whole entry): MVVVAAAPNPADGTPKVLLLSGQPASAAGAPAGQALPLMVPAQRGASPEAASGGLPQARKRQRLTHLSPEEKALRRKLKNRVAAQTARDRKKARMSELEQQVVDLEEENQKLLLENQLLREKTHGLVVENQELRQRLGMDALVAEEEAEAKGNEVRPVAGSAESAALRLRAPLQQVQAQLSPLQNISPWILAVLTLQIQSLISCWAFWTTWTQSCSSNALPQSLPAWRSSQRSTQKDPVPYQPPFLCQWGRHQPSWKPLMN

Phosphomannomutase 2 = Phosphomannomutase 2 (Homo sapiens, UniProt O15305); experiment: Counter screen SAR assay for PMM2 inhibitors via a fluorescence intensity assay. [Related pubchem assays (depositor defined):AID1545, AID1574]
Chain of Phosphomannomutase 2 (O15305 whole entry): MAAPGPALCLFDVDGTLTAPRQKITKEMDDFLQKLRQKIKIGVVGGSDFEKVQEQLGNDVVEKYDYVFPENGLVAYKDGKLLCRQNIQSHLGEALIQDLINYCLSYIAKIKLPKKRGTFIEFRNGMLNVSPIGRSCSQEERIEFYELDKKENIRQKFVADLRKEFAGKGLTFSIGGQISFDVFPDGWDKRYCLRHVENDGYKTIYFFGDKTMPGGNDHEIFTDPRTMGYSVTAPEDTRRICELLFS

[20] = alpha-synuclein stem-loop luciferase translation blockers – H4 neuroglioma cells, luminescence, confirmation (AID 1988); format: functional, cell-based

In the case of `O=C(Nc1nc2ccc(F)cc2s1)c1ccccn1`, the AC50 [1] is reported as 10 µM (active), the EC50 (Streptococcus) is reported as 10.1 µM (active) and the EC50 [2] is reported as 2.5 µM (active). For the same compound, the EC50 (Streptokinase A) was > 150 µM (not active), the AC50 [3] was 1.61 µM (active) and the IC50 [4] was greater than 32 µM. For the same compound, the AC50 [5] was 1.21 µM (active), the EC50 (Beta-galactosidase [6]) was > 31.5 µM (inactive) and the IC50 [7] was 4.6 µM (active). For the same compound, the CC50 [8] was > 5 µM (active), the AC50 [9] was 8.2 µM (active) and the CC50 [10] was 0.982 µM (active). The IC50 (cells) was < 0.1 µM (active), the IC50 [11] was 3.96 µM (active) and the AC50 [12] was 3.57 µM (active). The AC50 (INS1) was 2.72 µM (active), the CC50 [13] was 3.18 µM (active) and the EC50 (Beta-galactosidase [14]) was > 40 µM (inactive).
In the case of `CCOCCn1c(SCCCc2ccccc2)nc2c1c(=O)[nH]c(=O)n2C`, the IC50 (Coagulation factor XII [15]) is reported as > 50 µM (inactive).
For `COc1ccc(OCCOc2ccc(C)nc2[N+](=O)[O-])cc1`, the EC50 [16] was > 50 µM (inactive).
With `O=S(=O)(N1CCCCC1)N1CCN(c2ccccc2F)CC1` the IC50 (Coagulation factor XII [17]) was > 50 µM (inactive).
In the case of `CCSc1nc(-c2ccccc2)nc(C(Cl)Cl)n1`, the AC50 (Paired box protein Pax-8) is reported as 1.95 µM (active), the EC50 [18] is reported as > 120 µM (not active) and the EC50 [19] is reported as 5.98 µM (active). The “Absolute IC50 (XBP1)” value (X-box-binding protein 1) was 10 µM, the IC50 (Phosphomannomutase 2) was > 100 µM (inactive) and the EC50 [20] was 1.11 µM (active).
